19 molecules from patent US20260265238A1, “COMPOUNDS AND PHARMACEUTICAL COMPOSITIONS THAT DEGRADE SWI/SNF-RELATED MATRIX-ASSOCIATED ACTIN-DEPENDENT REGULATOR OF CHROMATIN SUBFAMILY A” (Plexium, Inc., priority 2023, published 2026) can be followed below.

In assay [1] the target is T1, SMARCA2-HiBiT HeLa cells (protein which is expressed from the SMARCA2 gene) (Homo sapiens, UniProt P51531).
T1 construct: protein which is expressed from the SMARCA2 and SMARCA4 genes; host or cells: HeLa (SMARCA2-HiBiT engineered line)
Kind of assay: SMARCA2 degradation assay (HiBiT-fusion HeLa cell line, 24 h, luminescence). The format is cell-based. In short, it runs like this:
(§1)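 HeLa cells carrying HiBiT-tagged SMARCA2 or SMARCA4 were seeded at 8,000 cells/well, allowed to attach overnight at 37° C., then given compounds in a 10-point dilution series (typically 10 μM to 300 pM) for 24 hours at 37° C. Remaining tagged protein was read by HiBiT lytic luminescence, and DC50s came from dose-response curves.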

Assay [2] deals with T2, SMARCA4-HiBiT HeLa cells (protein which is expressed from the SMARCA4 gene) (Homo sapiens, UniProt P51532).
T2 construct: protein which is expressed from the SMARCA2 and SMARCA4 genes; host or cells: HeLa (SMARCA4-HiBiT engineered line)
Kind of assay: SMARCA4 degradation assay (HiBiT-fusion HeLa cell line, 24 h, luminescence). The format is cell-based. In short, it runs like this: as §1
A general note: HiBiT is a short tag that completes a luciferase, so light tracks the accessible tagged protein.

T2 sequence (P51532 whole entry): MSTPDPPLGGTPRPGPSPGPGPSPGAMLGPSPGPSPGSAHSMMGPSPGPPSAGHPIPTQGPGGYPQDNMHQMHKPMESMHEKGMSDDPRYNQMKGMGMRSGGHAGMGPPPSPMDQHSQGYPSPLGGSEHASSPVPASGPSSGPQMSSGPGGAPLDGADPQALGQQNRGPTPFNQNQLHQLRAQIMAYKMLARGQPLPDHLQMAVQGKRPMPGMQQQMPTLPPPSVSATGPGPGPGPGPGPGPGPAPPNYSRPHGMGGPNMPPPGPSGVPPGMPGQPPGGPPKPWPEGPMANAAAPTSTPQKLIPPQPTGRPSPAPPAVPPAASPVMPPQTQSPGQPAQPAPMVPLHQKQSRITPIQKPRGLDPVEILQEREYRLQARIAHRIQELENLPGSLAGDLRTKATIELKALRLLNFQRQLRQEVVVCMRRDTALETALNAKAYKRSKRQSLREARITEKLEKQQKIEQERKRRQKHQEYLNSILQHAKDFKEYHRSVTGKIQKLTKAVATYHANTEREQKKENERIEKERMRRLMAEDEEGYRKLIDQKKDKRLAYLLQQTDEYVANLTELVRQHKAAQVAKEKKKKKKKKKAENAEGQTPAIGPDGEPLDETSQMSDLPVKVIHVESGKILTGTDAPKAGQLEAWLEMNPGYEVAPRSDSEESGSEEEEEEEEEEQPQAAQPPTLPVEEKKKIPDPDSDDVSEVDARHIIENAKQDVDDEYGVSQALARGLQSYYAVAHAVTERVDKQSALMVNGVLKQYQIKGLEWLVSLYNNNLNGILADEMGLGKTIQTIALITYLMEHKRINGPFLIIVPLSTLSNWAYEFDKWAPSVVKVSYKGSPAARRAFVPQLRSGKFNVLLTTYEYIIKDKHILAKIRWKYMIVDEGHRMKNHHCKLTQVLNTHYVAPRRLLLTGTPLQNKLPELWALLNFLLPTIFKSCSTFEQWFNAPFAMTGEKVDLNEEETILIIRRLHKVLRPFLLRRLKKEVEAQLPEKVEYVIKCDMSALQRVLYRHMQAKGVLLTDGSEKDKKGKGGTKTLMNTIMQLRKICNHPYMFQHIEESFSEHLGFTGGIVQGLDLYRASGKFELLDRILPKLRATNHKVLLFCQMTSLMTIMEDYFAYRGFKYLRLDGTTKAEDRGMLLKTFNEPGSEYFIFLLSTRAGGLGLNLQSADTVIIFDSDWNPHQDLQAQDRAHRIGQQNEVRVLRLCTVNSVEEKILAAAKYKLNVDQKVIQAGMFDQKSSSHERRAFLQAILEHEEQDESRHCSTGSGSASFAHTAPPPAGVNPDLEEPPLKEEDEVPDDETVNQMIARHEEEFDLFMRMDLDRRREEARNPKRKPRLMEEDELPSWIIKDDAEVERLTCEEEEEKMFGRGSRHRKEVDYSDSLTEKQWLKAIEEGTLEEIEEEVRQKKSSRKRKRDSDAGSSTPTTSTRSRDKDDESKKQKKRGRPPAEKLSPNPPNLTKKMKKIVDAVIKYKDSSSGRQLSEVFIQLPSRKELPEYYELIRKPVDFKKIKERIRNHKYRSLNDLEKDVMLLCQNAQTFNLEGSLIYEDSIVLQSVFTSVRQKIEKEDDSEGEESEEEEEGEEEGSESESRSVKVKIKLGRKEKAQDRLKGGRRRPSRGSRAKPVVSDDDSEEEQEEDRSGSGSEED
T1 sequence (P51531 whole entry): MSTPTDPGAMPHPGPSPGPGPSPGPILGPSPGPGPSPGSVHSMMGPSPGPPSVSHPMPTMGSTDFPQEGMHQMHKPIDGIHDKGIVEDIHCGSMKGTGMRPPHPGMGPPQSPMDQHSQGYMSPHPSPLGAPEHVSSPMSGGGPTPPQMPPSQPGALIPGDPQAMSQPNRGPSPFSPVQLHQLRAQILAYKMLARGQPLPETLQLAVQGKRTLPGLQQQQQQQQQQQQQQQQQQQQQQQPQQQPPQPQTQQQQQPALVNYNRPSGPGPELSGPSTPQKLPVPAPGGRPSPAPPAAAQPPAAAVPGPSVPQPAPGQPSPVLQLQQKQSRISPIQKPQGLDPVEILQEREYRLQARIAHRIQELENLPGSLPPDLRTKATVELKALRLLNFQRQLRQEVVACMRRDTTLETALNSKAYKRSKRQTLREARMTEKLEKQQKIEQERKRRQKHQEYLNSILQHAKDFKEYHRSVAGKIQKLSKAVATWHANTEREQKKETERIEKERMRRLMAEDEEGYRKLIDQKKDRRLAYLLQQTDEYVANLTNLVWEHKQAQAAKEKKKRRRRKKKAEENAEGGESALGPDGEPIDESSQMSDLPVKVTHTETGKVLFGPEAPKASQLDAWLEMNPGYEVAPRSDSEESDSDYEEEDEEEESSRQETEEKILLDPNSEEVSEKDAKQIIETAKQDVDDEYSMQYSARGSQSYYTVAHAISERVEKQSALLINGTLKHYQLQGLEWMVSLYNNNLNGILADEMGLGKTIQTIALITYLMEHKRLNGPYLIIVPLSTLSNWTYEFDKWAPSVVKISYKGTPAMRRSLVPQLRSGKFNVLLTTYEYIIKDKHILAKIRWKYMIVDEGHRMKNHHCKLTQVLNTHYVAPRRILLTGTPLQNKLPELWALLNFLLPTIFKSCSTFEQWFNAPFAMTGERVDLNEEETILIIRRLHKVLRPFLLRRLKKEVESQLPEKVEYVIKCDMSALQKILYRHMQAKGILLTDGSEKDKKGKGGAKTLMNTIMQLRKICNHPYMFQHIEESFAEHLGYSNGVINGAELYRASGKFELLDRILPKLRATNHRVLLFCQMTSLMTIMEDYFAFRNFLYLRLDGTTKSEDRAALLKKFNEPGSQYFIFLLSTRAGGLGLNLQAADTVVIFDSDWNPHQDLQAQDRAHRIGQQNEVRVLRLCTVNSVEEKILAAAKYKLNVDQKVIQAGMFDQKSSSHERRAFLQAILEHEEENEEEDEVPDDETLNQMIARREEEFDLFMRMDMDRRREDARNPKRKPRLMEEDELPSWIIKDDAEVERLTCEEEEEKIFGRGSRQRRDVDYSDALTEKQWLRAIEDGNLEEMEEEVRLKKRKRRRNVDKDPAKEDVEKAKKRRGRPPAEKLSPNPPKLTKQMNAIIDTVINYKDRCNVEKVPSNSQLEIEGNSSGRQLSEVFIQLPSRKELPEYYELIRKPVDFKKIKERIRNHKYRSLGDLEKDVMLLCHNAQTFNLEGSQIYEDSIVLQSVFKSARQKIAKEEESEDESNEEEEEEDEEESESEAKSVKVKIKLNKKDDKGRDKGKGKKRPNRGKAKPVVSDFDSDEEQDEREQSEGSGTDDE

As for `CS(=O)(=O)N1CCC(C#Cc2nccc(N3CCCN(c4cc(-c5ccccc5O)nnc4N)CC3)n2)CC1` [Compound P-352, 0-[6-amino-5-(4-{2-[2-(1-mesyl-4-piperidyl)ethynyl]-4-pyrimidinyl}-1,4-diazepan-1-yl)-3-pyridazinyl]phenol], the 50% degradation concentration (DC50) in assay [1] and in assay [2] was 500 to 5000 nM in each case. Further, the “SMARCA2 % Degradation @ 1 μM” value in assay [1] (@ 1 μM) is “++ (++=30-70%)”. The molecule further gave an inhibition at 1 µM in assay [2] (@ 1 μM) of 30 to 70%.

As to `C[C@@H]1CCN(c2cc(-c3ccccc3O)nnc2N)CCN1c1ccc(C#N)c(C#CCN2CC(F)(F)C2)n1` [Compound P-412, 6-{(R)-4-[3-amino-6-(0-hydroxyphenyl)-4-pyridazinyl]-7-methyl-1,4-diazepan-1-yl}-2-[3-(3,3-difluoro-1-azetidinyl)-1-propynyl]nicotinonitrile], the DC50 in assay [1] and in assay [2] was 50 to 500 nM throughout. Besides, the “SMARCA2 % Degradation @ 1 μM” value in assay [1] (1 μM) is on record as “++ (++=30-70%)”. In addition, in assay [2] (1 μM), the inhibition at 1 µM is less than 30%.

With `C[C@H]1CN(c2ccnc(C#CCNC(=O)c3cc4ncccn4n3)n2)CCN1c1cc(-c2ccccc2O)nnc1N` [Compound P-48, (S)-N-(3-(4-(4-(3-amino-6-(2-hydroxyphenyl)pyridazin-4-yl)-3-methylpiperazin-1-yl)pyrimidin-2-yl)prop-2-yn-1-yl)pyrazolo[1,5-a]pyrimidine-2-carboxamide], the DC50 in assay [1] and in assay [2] was 50 to 500 nM each time. In addition, the “SMARCA2 % Degradation @ 1 μM” value in assay [1] (@ 1 μM) is reported as “++ (++=30-70%)”. Besides, the inhibition at 1 µM in assay [2] (@ 1 μM) is 30 to 70%.

For `C[C@@H]1CCN(c2cc(-c3ccccc3O)nnc2N)CCN1c1ccnc(C#CCN2CC3CC2C3)c1` [Compound P-392, 0-{5-[(R)-4-(2-{3-(2-azabicyclo[2.1.1]hex-2-yl)-1-propynyl}-4-pyridyl)-5-methyl-1,4-diazepan-1-yl]-6-amino-3-pyridazinyl}phenol], the DC50 in assay [1] and in assay [2] was 50 to 500 nM each time. For the same molecule, in assay [1] (1 μM), the “SMARCA2 % Degradation @ 1 μM” value is reported as “+++ (+++=>70%)”. The inhibition at 1 µM in assay [2] (1 μM) was greater than 70%.

Consider `C[C@@H]1CCN(c2cc(-c3ccccc3O)nnc2N)CCN1c1ccnc(C#CCN2C3COCC2C3)n1` [Compound P-184, o-{5-[(R)-5-methyl-4-(2-{3-(3-oxa-6-azabicyclo[3.1.1]hept-6-yl)-1-propynyl}-4-pyrimidinyl)-1,4-diazepan-1-yl]-6-amino-3-pyridazinyl}phenol], for which the DC50 in assay [1] and in assay [2] was less than 50 nM throughout. For the same molecule, the “SMARCA2 % Degradation @ 1 μM” value in assay [1] (@ 1 μM) is “+++ (+++=>70%)”. In addition, in assay [2] (@ 1 μM), the inhibition at 1 µM lay in the range of 30 to 70%.

Take `CC1CCN(c2cc(-c3ccccc3O)nnc2N)CCN1c1ccnc(C#CCN)n1` (stereo not shown) [Compound P-85, 2-(6-amino-5-(4-(2-(3-aminoprop-1-yn-1-yl)pyrimidin-4-yl)-5-methyl-1,4-diazepan-1-yl)pyridazin-3-yl)phenol]: the DC50 in assay [1] and in assay [2] was 500 to 5000 nM each time. The “SMARCA2 % Degradation @ 1 μM” value in assay [1] (@ 1 μM) was “+ (+=<30%)”. The inhibition at 1 µM in assay [2] (@ 1 μM) was less than 30%.

Turning to `C[C@@H]1CCN(c2cc(-c3ccccc3O)nnc2N)CCN1c1ccnc(/C=C/CN2CCOCC2)n1` [Compound P-167, o-(5-{(R)-5-methyl-4-[2-(3-morpholino-1-propenyl)-4-pyrimidinyl]-1,4-diazepan-1-y1}-6-amino-3-pyridazinyl)phenol], the DC50 in assay [1] and in assay [2] was less than 50 nM throughout. Also, the “SMARCA2 % Degradation @ 1 μM” value in assay [1] (@ 1 μM) is recorded as “++ (++=30-70%)”. Also, the inhibition at 1 µM in assay [2] (@ 1 μM) is less than 30%.

Turning to `C[C@@H]1CCN(c2cc(-c3ccccc3O)nnc2N)CCN1c1cc(C#CCN2CCCCC2)ncc1F` [Compound P-414, 0-(5-{(R)-4-[5-fluoro-2-(3-piperidino-1-propynyl)-4-pyridyl]-5-methyl-1,4-diazepan-1-yl}-6-amino-3-pyridazinyl)phenol], the 50% degradation concentration (DC50) in assay [1] and in assay [2] was 50 to 500 nM throughout. The “SMARCA2 % Degradation @ 1 μM” value in assay [1] (1 μM) is given as “+ (+=<30%)”. Moreover, the inhibition at 1 µM in assay [2] (1 μM) fell in the range of 30 to 70%.

Take `Nc1nnc(-c2ccccc2O)cc1OC1CC2CN(c3ccnc(C#CCn4ccnc4)n3)CC2C1` (stereo not shown) [Compound P-219, o-[6-amino-5-(3-{2-[3-(1-imidazolyl)-1-propynyl]-4-pyrimidinyl}-3-azabicyclo[3.3.0]oct-7-yloxy)-3-pyridazinyl]phenol]: the DC50 in assay [1] and in assay [2] was 50 to 500 nM each time. Further, in assay [1] (@ 1 μM), the “SMARCA2 % Degradation @ 1 μM” value is on record as “+++ (+++=>70%)”. The inhibition at 1 µM in assay [2] (@ 1 μM) was greater than 70%.

Consider `C[C@@H]1CCN(c2cc(-c3ccccc3O)nnc2N)CCN1c1cc(C#CCn2ccnc2)ncc1F` [Compound P-417, 0-{5-[(R)-4-{5-fluoro-2-[3-(1-imidazolyl)-1-propynyl]-4-pyridyl}-5-methyl-1,4-diazepan-1-yl]-6-amino-3-pyridazinyl} phenol], for which the DC50 in assay [1] and in assay [2] was 50 to 500 nM in each case. Moreover, the “SMARCA2 % Degradation @ 1 μM” value in assay [1] (1 μM) was “++ (++=30-70%)”. For the same molecule, the inhibition at 1 µM in assay [2] (1 μM) lay in the range of 30 to 70%.

As for `C[C@@H]1CCN(c2cc(-c3ccccc3O)nnc2N)CCN1c1ccnc(C#CCN2CC(F)(F)[C@H]2C)n1` [Compound P-271, 0-{5-[(R)-4-(2-{3-[(R)-3,3-difluoro-2-methyl-1-azetidinyl]-1-propynyl}-4-pyrimidinyl)-5-methyl-1,4-diazepan-1-yl]-6-amino-3-pyridazinyl}phenol], the DC50 in assay [1] and in assay [2] was 50 to 500 nM throughout. In addition, the “SMARCA2 % Degradation @ 1 μM” value in assay [1] (@ 1 μM) was “++ (++=30-70%)”. Further, in assay [2] (@ 1 μM), the inhibition at 1 µM was less than 30%.

With `Cn1ccnc1C#Cc1nccc(N2CCCN(c3cc(-c4ccccc4O)nnc3N)CC2)n1` [Compound P-354], the DC50 in assay [1] and in assay [2] was 500 to 5000 nM each time. Also, the “SMARCA2 % Degradation @ 1 μM” value in assay [1] (@ 1 μM) was “++ (++=30-70%)”. In assay [2] (@ 1 μM), this molecule registered an inhibition at 1 µM of 30 to 70%.

Consider `Nc1nnc(-c2ccccc2O)cc1N1CCCN(c2ccnc(C#CCN3CCC3)n2)CC1` [Compound P-308, 0-[6-amino-5-(4-{2-[3-(1-azetidinyl)-1-propynyl]-4-pyrimidinyl}-1,4-diazepan-1-yl)-3-pyridazinyl]phenol], for which the DC50 in assay [1] and in assay [2] was 500 to 5000 nM throughout. Besides, the “SMARCA2 % Degradation @ 1 μM” value in assay [1] (@ 1 μM) was “++ (++=30-70%)”. Further, the inhibition at 1 µM in assay [2] (@ 1 μM) lay in the range of 30 to 70%.

With `CC1CN(c2ccnc(C#CCNC(=O)c3cc4ncccn4n3)n2)CCN(c2cc(-c3ccccc3O)nnc2N)C1` (stereo not shown) [Compound P-27, N-(3-(4-(4-(3-amino-6-(2-hydroxyphenyl)pyridazin-4-yl)-6-methyl-1,4-diazepan-1-yl)pyrimidin-2-yl)prop-2-yn-1-yl)pyrazolo[1,5-a]pyrimidine-2-carboxamide], the 50% degradation concentration (DC50) in assay [1] and in assay [2] was 50 to 500 nM each time. The “SMARCA2 % Degradation @ 1 μM” value in assay [1] (@ 1 μM) is listed as “+++ (+++=>70%)”. Moreover, in assay [2] (@ 1 μM), the inhibition at 1 µM is greater than 70%.

As to `C[C@@H]1CCN1CC#Cc1cc(N2CCN(c3cc(-c4ccccc4O)nnc3N)CC[C@H]2C)ccn1` [Compound P-420, 0-{5-[(R)-4-(2-{3-[(R)-2-methyl-1-azetidinyl]-1-propynyl}-4-pyridyl)-5-methyl-1,4-diazepan-1-yl]-6-amino-3-pyridaziny1}phenol], the half-maximal degradation concentration (DC50) in assay [1] and in assay [2] was less than 50 nM throughout. Besides, the “SMARCA2 % Degradation @ 1 μM” value in assay [1] (1 μM) is on record as “+++ (+++=>70%)”. Besides, the inhibition at 1 µM in assay [2] (1 μM) lay in the range of 30 to 70%.

In the case of `Nc1nnc(-c2ccccc2O)cc1N1CCCN(c2ccnc(C#CCNC(=O)OCC(F)(F)F)n2)CC1` [Compound P-339, 6-(o-hydroxyphenyl)-4-(4-{2-[3-(2,2,2-trifluoroethoxycarbonylamino)-1-propynyl]-4-pyrimidinyl}-1,4-diazepan-1-yl)-3-pyridazinamine], the DC50 in assay [1] and in assay [2] was 50 to 500 nM each time. Further, the “SMARCA2 % Degradation @ 1 μM” value in assay [1] (@ 1 μM) was “+++ (+++=>70%)”. For the same molecule, the inhibition at 1 µM in assay [2] (@ 1 μM) was greater than 70%.

Take `CNc1cc(N2CCCN(c3cc(-c4ccccc4O)nnc3N)CC2)nc(C#CCNC(=O)c2nn(C)c(C)c2C)n1` [Compound P-141, N-(3-(4-(4-(3-amino-6-(2-hydroxyphenyl)pyridazin-4-yl)-1,4-diazepan-1-yl)-6-(methylamino)pyrimidin-2-yl)prop-2-yn-1-yl)-1,4,5-trimethyl-1H-pyrazole-3-carboxamide]: the DC50 in assay [1] and in assay [2] was 500 to 5000 nM each time. Moreover, in assay [1] (@ 1 μM), the “SMARCA2 % Degradation @ 1 μM” value is listed as “??”. Also, the inhibition at 1 µM in assay [2] (@ 1 μM) fell in the range of 30 to 70%.

For the molecule `C[C@H]1COCCN1CC#Cc1nccc(N2CCCN(c3cc(-c4ccccc4O)nnc3N)CC2)n1` [Compound P-316, 0-{5-[4-(2-{3-[(S)-3-methyl-4-morpholinyl]-1-propynyl}-4-pyrimidinyl)-1,4-diazepan-1-yl]-6-amino-3-pyridazinyl}phenol], the DC50 in assay [1] is 50 to 500 nM; in assay [2], 500 to 5000 nM. The “SMARCA2 % Degradation @ 1 μM” value in assay [1] (@ 1 μM) is given as “++ (++=30-70%)”. The molecule further registered an inhibition at 1 µM in assay [2] (@ 1 μM) of less than 30%.

In the case of `Nc1nnc(-c2ccccc2O)cc1N1C[C@@H]2C[C@H]1CN2c1ccnc(C#CCNC(=O)c2cc3ncccn3n2)n1` [Compound P-30, N-(3-(4-((1S,4S)-5-(3-amino-6-(2-hydroxyphenyl)pyridazin-4-yl)-2,5-diazabicyclo[2.2.1]heptan-2-yl)pyrimidin-2-yl)prop-2-yn-1-yl)pyrazolo[1,5-a]pyrimidine-2-carboxamide], the DC50 in assay [1] and in assay [2] was 500 to 5000 nM throughout. Moreover, the “SMARCA2 % Degradation @ 1 μM” value in assay [1] (@ 1 μM) is given as “++ (++=30-70%)”. This molecule showed an inhibition at 1 µM in assay [2] (@ 1 μM) of 30 to 70%.

For orientation: DC50 means the midpoint of the concentration-degradation curve. Read a high DC50 as a less potent degrader. Broadly, the inhibition is the change of the read-out against control, counted positive when it falls.
